The values that follow come from article PMC9584352, “Conserved Pib2 regions have distinct roles in TORC1 regulation at the vacuole” (Journal of Cell Science, 2022).

Bounds are passed on as bounds.

The target in one series is T1, EEA1 1287–1411 (Homo sapiens, UniProt Q15075).
T1 construct: purified; largely dimeric by SEC-MALS
T1 sequence (Q15075 1287-1411): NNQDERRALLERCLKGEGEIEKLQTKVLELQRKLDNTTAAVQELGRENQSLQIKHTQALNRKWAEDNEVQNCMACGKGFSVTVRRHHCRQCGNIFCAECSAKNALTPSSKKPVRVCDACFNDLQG
The experiment in a line: ITC. The series is classed as binding.

The next series deals with T2, Pib2 419–625 (Saccharomyces cerevisiae, UniProt P53191).
T2 construct: FYVE domain fragment starting 23 residues before the FYVE core, residues 419-625; purified; predominantly monomeric by SEC-MALS
T2 sequence (P53191 419-625): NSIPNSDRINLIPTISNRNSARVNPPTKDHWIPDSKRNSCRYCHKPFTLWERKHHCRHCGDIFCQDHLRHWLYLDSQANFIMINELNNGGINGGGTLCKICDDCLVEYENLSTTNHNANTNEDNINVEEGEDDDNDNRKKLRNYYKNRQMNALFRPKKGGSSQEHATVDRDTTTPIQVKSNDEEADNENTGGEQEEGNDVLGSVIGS
Nature of the series: ITC. The series is classed as binding.

The next series deals with T3, Pib2 442–625 (Saccharomyces cerevisiae, UniProt P53191).
T3 construct: FYVE domain fragment, start of FYVE domain to beginning of tail motif, residues 442-625; purified; predominantly monomeric by SEC-MALS
T3 sequence (P53191 442-625): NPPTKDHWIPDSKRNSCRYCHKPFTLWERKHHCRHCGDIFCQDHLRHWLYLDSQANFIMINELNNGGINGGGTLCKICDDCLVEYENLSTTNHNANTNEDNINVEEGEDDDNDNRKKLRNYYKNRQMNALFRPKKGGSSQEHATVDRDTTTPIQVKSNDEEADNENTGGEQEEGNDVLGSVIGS
The experiment in a line: ITC. The class given is binding.

The next series deals with T4, EEA1 1347–1411 (Homo sapiens, UniProt Q15075).
T4 construct: purified; largely monomeric by SEC-MALS
T4 sequence (Q15075 1347-1411): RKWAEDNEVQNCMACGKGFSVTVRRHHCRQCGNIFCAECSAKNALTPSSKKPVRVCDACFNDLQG
Nature of the series: ITC. The series is classed as binding.

Series [1] concerns the molecule itself. The experiment in a line: SEC-MALS; Superdex 75 10/300 in 20 mM Tris-HCl pH 7.4, 150 mM NaCl, 1.93 mM β-mercaptoethanol, room temperature; 500 µl of each protein loaded at 50 or 100 µM as indicated; detectors at 25°C. (In general: In gel filtration, larger molecules generally elute earlier.)

In the case of `O=P(O)(O)O[C@@H]1[C@H](O)[C@H](OP(=O)(O)O)[C@@H](O)[C@H](O)[C@H]1O` [inositol 1,3-bisphosphate], the Kd (in general, a measure of binding affinity in units of concentration) was roughly 95.8 µM at EEA1 1287–1411, greater than 290 µM on Pib2 419–625, 212 µM on Pib2 442–625 and greater than 300 µM on EEA1 1347–1411.
Molecule `CCCC(=O)OC[C@H](COP(=O)(O)O[C@@H]1[C@H](O)[C@H](OP(=O)(O)O)[C@@H](O)[C@H](O)[C@H]1O)OC(=O)CCC` [PI3P diC4] returned a Kd at Pib2 442–625 of 736 µM.

B1: EEA1 1287–1411 (domain or fragment, UniProt Q15075 1287-1411, looked up)
chain: T1 sequence (Q15075 1287-1411)
notes: also called longer EEA1 FYVE construct; source: purified
Take B1: in series [1], the stoichiometry N (usually a count of units in the complex or per binding partner) came out at 2.
